In patent publication US8592403B2, “Diazepine and diazocane compounds as MC4 agonists” (Pfizer Limited, priority 2008, dated 2013):

Columns and labels:
[1] = In vitro metabolism rate determination, human liver microsome (HLM) assay; assay type: in vitro ADME; conditions: human, liver microsomes, read-out: HLM: Clint, app
Text: In Vitro Metabolism Rate Determination (Human Liver Microsome (HLM); Rat Liver Microsome (RLM) Assay)
Many drugs are metabolised by the cytochrome P450 mono-oxygenase system. This enzyme is found in high concentrations in the liver and is bound to the endoplasmic reticulum of the hepatocyte. The enzyme system can be obtained in semi-purified state by the preparation of the hepatic microsomal fractions. Determining a compound's in vitro half-life in such a system provides a useful indicator of metabolic stability.
Methodology for In Vitro Rate Determination Using Hepatic & Supermix Microsomes
The method outlined below is for a total incubation volume of 1.5 ml.
1. The following mixture is prepared in a test tube:
2. Defrost microsomes at room temperature and add sufficient microsomes to give a final concentration of 0.5 nmol cytochrome P450/ml of incubation e.g. for a 1.5 ml incubation, the volume of microsomes to be added is:
3. Add sufficient MilliQ water to give a total incubation volume of 1.425 ml.
6. Add substrate to the incubation. The substrate should be at an initial concentration of 1 μM. The volume of substrate required in the remaining 1.162.5 ml incubation is calculated as follows: […]
8. Pre-incubate the tube containing the incubation mix, also positive control and no cofactor tubes in the thermostatically controlled shaking water bath set at 37° C. for approx 5 min.
9. Add NADP to initiate reaction (75 μl to each 1.162.5 ml incubation mix, 12.5 μl to positive control tube and 5 μl to no substrate tube) and take first time point immediately. The PNA positive control, no cofactor control and no substrate tubes are incubated for the total incubation time.
10. Remove 100 μl aliquots up to 9 different sampling points from 0 to 60 min (usually 0, 3, 5, 10, 15, 20, 30, 45 & 60 min) and terminate reaction. Longer incubation times can be used, but, after 120 min the microsomes deteriorate. The reaction may be terminated by addition of organic solvent, acid or base. At the end of the incubation process the no cofactor and no substrate controls in a similar manner i.e. terminate with the same reagent.
11. Analyse samples (including no cofactor and no substrate control) by a specific assay for the substrate to determine the disappearance kinetics.
Data obtained using the procedure described above can be quantified in terms of the substrates in vitro intrinsic clearance (Clint). Providing that the substrate concentration is below Km, the metabolism should be 1st order giving a log-linear plot of substrate disappearance with time.
The gradient of this line is the first order rate constant (k) for the substrate disappearance and is determined by regression analysis. This rate constant can be converted to the half-life according to the following equation.
Alternatively the rate constant can be converted to an intrinsic clearance (Clint) according to the following equation:— Clint(μl/min/mg)=(k/protein concentration in incubation (mg/ml))*1000

[2] = target: MC4 receptor (Homo sapiens, UniProt P32245); experiment: MC4 EC50 functional potency (protocol E of US2005/0176772 / WO 2005/077935); assay type: cell-based
MC4 receptor, sequence (P32245 whole entry): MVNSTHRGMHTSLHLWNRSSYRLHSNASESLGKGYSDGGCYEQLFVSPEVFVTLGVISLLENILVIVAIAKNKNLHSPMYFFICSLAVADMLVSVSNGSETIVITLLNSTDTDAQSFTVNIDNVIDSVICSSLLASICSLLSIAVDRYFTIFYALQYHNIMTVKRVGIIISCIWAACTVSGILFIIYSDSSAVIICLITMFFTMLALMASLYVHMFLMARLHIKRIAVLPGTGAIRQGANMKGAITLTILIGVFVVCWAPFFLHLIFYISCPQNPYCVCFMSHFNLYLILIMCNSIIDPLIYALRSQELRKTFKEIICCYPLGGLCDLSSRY
Description: The compounds of formula (I) of the present invention have utility as MCR4 agonists in the treatment of various disease states.
MC5 and MC4 EC50 activity was determined as described by assay protocols D and E, respectively, in US2005/0176772 (pages 28-30).

[3] = target: T1, MC3 receptor (MC3R) (Homo sapiens, UniProt P41968); experiment: Nle4, D-Phe7-α-MSH inhibition at the MC3 receptor (competition binding, SPA, CHO-CRE MC3R membranes)
T1 construct: expressed in transfected cells; host or cells: CHO-CRE MC3R cells (membranes)
T1 sequence (P41968 whole entry): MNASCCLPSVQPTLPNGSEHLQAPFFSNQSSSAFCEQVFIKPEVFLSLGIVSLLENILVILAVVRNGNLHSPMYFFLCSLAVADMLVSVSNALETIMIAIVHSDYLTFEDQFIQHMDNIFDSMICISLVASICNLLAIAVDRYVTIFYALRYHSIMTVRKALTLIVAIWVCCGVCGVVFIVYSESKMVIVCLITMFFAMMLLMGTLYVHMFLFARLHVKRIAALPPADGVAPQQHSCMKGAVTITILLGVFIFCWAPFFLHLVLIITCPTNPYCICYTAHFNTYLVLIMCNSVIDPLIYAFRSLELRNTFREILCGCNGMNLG
Text: Nle4, D-Phe7-α-MSH Inhibition at the MC3 Receptor
(§1) Nle4, D-Phe7-α-MSH is a stable analogue of melanocyte-stimulating hormone (MSH), which is an agonist at the MC3 receptor (MC3R). Compounds can be evaluated for their ability to inhibit Nle4, D-Phe7-α-MSH binding to membranes from cells expressing the MC3R using a competition binding assay versus [^125I] Nle4, D-Phe7-α-MSH.
(§2) Cells expressing the MC3R were subject to homogenisation and the membrane fragment isolated by differential centrifugation. CHO-CRE MC3R cell membranes were coupled to PVT-PEI-WGA SPA Beads type A for 2 hours, spun at 1000 RPM for 5 mins and suspended to a final assay concentration of 800 ug bead/ml (1.2 ug membrane, 40 ug bead per well). Bead/membrane mix was incubated with 0.06 nM [^125I] Nle4, D-Phe7-α-MSH and 11 half-log concentrations of competitor ligand, in duplicate, in a total volume of 50 μl buffer per well (25 mM HEPES, 1 mM MgCl2, 2.5 mM CaCl2, 1% Pluronic F68, 1 complete EDTA protease inhibitor tablet/50 ml pH7). Non-specific binding was determined by the inclusion of 100 nM SHU9119. The reaction was initiated by the addition of bead/membranes and plates were incubated at room temperature for 12 hours (the first hour on a plate shaker), after which the amount of radioactivity present was determined using a Wallac plate counter. Ki values were determined by data analysis using appropriate software.

[4] = target: T2, MC4 receptor (MC4R) (Homo sapiens, UniProt P32245); experiment: Nle4, D-Phe7-α-MSH inhibition at the MC4 receptor (competition binding, SPA, CHO-CRE MC4R membranes)
T2 construct: expressed in transfected cells; host or cells: CHO-CRE MC4R cells (membranes)
T2 sequence (P32245 whole entry): as the sequence (P32245 whole entry) above
Text: Nle4, D-Phe7-α-MSH Inhibition at the MC4 Receptor
as §1, with “MC4” for “MC3”, “(MC4R).” for “(MC3R).”, “MC4R” for “MC3R”
as §2, with “MC4R” for “MC3R”, “min” for “mins”, “a” for “a final assay”, “300” for “800”, “(0.15” for “(1.2”, “15” for “40”

[5] = target: T3, CYP3A4 (Homo sapiens, UniProt P08684); experiment: High density DDI 3 μM cocktail screen in human liver microsomes, midazolam probe; assay type: in vitro ADME; conditions: human, liver microsomes, probe midazolam, read-out: % inhibition 3A4 @ 3 μM
T3 construct: utilizes human liver microsomes together with isoform-specific clinical drug probes; from tissue; host or cells: human liver microsomes
T3 sequence (P08684 whole entry, canonical isoform): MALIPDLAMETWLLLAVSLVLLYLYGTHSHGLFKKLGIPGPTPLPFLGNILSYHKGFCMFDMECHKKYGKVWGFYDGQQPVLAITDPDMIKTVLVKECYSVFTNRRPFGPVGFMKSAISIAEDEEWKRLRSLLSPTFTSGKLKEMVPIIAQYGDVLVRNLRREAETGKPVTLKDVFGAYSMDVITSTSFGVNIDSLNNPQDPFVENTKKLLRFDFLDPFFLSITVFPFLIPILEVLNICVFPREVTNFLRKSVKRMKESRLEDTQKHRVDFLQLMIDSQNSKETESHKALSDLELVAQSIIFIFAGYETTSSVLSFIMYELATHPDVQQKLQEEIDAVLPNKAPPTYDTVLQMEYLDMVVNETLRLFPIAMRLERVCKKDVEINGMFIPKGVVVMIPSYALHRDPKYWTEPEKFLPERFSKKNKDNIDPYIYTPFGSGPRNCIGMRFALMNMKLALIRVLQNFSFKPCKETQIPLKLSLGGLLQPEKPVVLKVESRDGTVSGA
Description: High Density Drug-Drug Interactions (DDI) 3 μM Cocktail Screen
A drug interaction is a situation in which a substance affects the activity of another drug, i.e. the effects are increased or decreased, or together they produce a new effect that neither produces on its own. Drug interactions may be the result of various processes but a relatively common one is where one drug affects the pharmacokinetics of another by inhibiting the cytochrome P450 that metabolises it. Because of the importance of these phenomena, assessment of the DDI potential for new chemical entities (NCEs) is considered important early on in the drug discovery process.
The DDI cocktail screen in human liver microsomes (HLM) is run in a fully automated fashion and the aim of the screen is to provide a single-point assessment of the DDI potential of new chemical entity (NCE; tested at […]) against the 4 primary cytochrome P450 enzymes, 1A2, 2D6, 2C9 and 3A4.
The substrate cocktail approach for P450 DDI utilizes human liver microsomes together with isoform-specific clinical drug probes and permits the simultaneous measurement of the inhibition of P450 1A2, 2C9, 2D6 & 3A4 activities in a single incubation. This is run in high throughput with simultaneous detection of metabolites by LC-MS/MS. This method has been thoroughly tested and evaluated using standard compounds.
Appearance of the metabolite of each substrate is measured over time in the presence and absence of the NCE (test compound/inhibitor) at a concentration of 3 μM. The compounds are assessed for their inhibitory potential as a percentage value and interpreted using the following scheme.

microsomal CLint at 1 μM [1] [µL/min/mg] | EC50 [2] [nM] | Ki [3] [nM] | Ki [4] [nM] | inhibition at 3 µM [5] [%] | SMILES
31 | 159 | 2980 | 2090 | 63 | COc1ccc(C2CCCN(C(=O)[C@@H]3CN(c4ccc(C#N)nn4)C[C@H]3c3ccc(F)cc3F)CCN2C(C)=O)cc1 (mixture of isomers) [Example 1, 6-[(3S,4R)-3-{[4-acetyl-5-(4-methoxyphenyl)-1,4-diazocan-1-yl]carbonyl}-4-(2,4-difluorophenyl)pyrrolidin-1-yl]pyridazine-3-carbonitrile]
39 | 19 | 375 | 269 | 60 | CC(=O)N1CCN(C(=O)[C@@H]2CN(c3ccc(C#N)nn3)C[C@H]2c2ccc(F)cc2F)CCCC1c1ccccc1F (mixture of isomers) [Example 2]
60 | 42.4 | 3130 | 521 | 30 | CC(=O)N1CCN(C(=O)[C@@H]2CN(c3cccnn3)C[C@H]2c2ccc(F)cc2F)CCC1c1ccccc1 (mixture of isomers) [Example 3]
237 | 145 | 815 | 555 | 36.5 | COc1cccc(C2CCCN(C(=O)[C@@H]3CN(c4ccc(C#N)nn4)C[C@H]3c3ccc(F)cc3F)CCN2C(C)=O)c1 (mixture of isomers) [Example 4]
55 | 85.5 | 2660 | 585 | 61.5 | COC(=O)N1CCN(C(=O)[C@@H]2CN(c3ccc(C#N)nn3)C[C@H]2c2ccc(F)cc2F)CCCC1c1ccc(OC)cc1 (mixture of isomers) [Example 48]
86 | 21.1 | 2230 | 208 | 42.5 | COC(=O)N1CCN(C(=O)[C@@H]2CN(c3cccnn3)C[C@H]2c2ccc(F)cc2F)CCC1c1ccccc1 (mixture of isomers) [Example 49]
266 | 74 | 1610 | 379 | 76.5 | COC(=O)N1CCN(C(=O)[C@@H]2CN(c3ccc(C#N)nn3)C[C@H]2c2ccc(F)cc2F)CCCC1c1cccc(OC)c1 (mixture of isomers) [Example 50]
74 | 86.7 | 19600 | 1390 | 56 | COC(=O)N1CCN(C(=O)[C@@H]2CN(C3CCOCC3)C[C@H]2c2ccc(F)cc2F)CCCC1c1ccccc1 (mixture of isomers) [Example 74]
8 | 10.7 | 462 | 84.7 | 73.5 | COC(=O)N1CCN(C(=O)[C@@H]2CN(c3ccc(C#N)nn3)C[C@H]2c2ccc(F)cc2F)CCCC1c1ccc(Cl)cc1 (mixture of isomers) [Example 75]
19 | 5.41 | 627 | 49.8 | 70.5 | COC(=O)N1CCN(C(=O)[C@@H]2CN(c3ccc(=O)n(C)n3)C[C@H]2c2ccc(F)cc2F)CCCC1c1ccc(Cl)cc1 (mixture of isomers) [Example 80]
18 | 20 | 1750 | 122 | 32 | Cn1nc(N2C[C@@H](C(=O)N3CCCC(c4ccc(Cl)cc4)N(S(C)(=O)=O)CC3)[C@H](c3ccc(F)cc3F)C2)ccc1=O (mixture of isomers) [Example 81]
 | 168 | 2150 | 927 | 50 | CS(=O)(=O)N1CCN(C(=O)[C@@H]2CN(c3ccc(C#N)nn3)C[C@H]2c2ccc(C#N)cc2)CCCC1c1ccc(Cl)cc1 (mixture of isomers) [Example 87]
31.1 | 4.81 |  | 90.9 | 44.9 | CC1(C(=O)N2CCN(C(=O)[C@@H]3CN(C(C)(C)C)C[C@H]3c3ccc(F)cc3F)CCC[C@H]2c2ccc(Cl)cc2)CC1 [Example 60, 1-{[(3S,4R)-1-tert-butyl-4-(2,4-difluorophenyl)pyrrolidin-3-yl]carbonyl}-5S-(4-chlorophenyl)-4-(1-methylcyclopropylcarbonyl)-1,4-diazocane]
 | 18.4 |  | 3660 | 0 | COc1ccc([C@@H]2CN(C(C)(C)C)C[C@H]2C(=O)N2CCC[C@@H](c3ccc(Cl)cc3)N(C(=O)C3CC(F)(F)C3)CC2)c(F)c1 [Example 62]
